According to patent US10300055B2, “Treatment of parkinson's disease through ARFGAP1 inhibition” (Dalhousie University, priority 2014, dated 2019):

Target: T1, hArfGAP1 (human ArfGAP1) (Homo sapiens, UniProt Q8N6T3)
T1 construct: expressed in transfected cells; host or cells: Saccharomyces cerevisiae strain PPY17:114-3B-141-A (gcs1::NatR, pdr5::HIS3, snq2::TRP1), galactose-induced
Experiment: Yeast growth restoration screen: S. cerevisiae gcs1 knockout strain expressing hArfGAP1
Type: cell-based
Conditions: retest at various concentrations, FIG. 5; A600; compared with 3B-VEC empty vector strain
From the text: Overexpression of heterologous proteins in the yeast Saccharomyces cerevisiae often inhibits its growth, while inhibitors of the overexpressed proteins can restore growth. These simple observations form the basis of a powerful assay to identify inhibitors of such proteins. An expression plasmid for the inducible expression of a gene of interest is introduced into a yeast strain rendered more sensitive to chemicals by deletion of efflux pumps. Protein expression is induced, cells are exposed to test chemicals, and growth is measured by optical density at 600 nm (OD600 or A600) reading.
In the instant case, a S. cerevisiae gcs1 knockout strain is employed bearing a vector expressing the heterologous protein hArfGAP1 (human ArfGAP1, the human ortholog of yeast GCS1). Generally, expression of ArfGAP1 will suppress growth of gcs1 knockout yeast and thus small molecules that inhibit ArfGAP1 will lead to observable increases in growth. This in turn allows for the direct identification of small molecules that could be used to treat LRRK2-mutation induced PD.
PPY17:114-3B-vec (gcs1::NatR, pdr5::HIS3, snq2::TRP1, ura3, ade2, carrying plasmid pRS315) [empty vector control strain]; PPY17:114-3B-141-A (gcs1::NatR, pdr5::HIS3, snq2::TRP1, ura3, ade2, carrying plasmid pPP16:141 pGAL1-hArfGAP1) [human ArfGAP1-expressing strain].
1. The day before screening, the control strain containing the empty plasmid and the selected test strain bearing the plasmid with the gene of interest were inoculated into 2 mL of SC selection medium containing 2% glucose. Cells were grown overnight at 30° C. with shaking at 220 rpm. Note: it can be observed that the yeast strain expressing human expression vector and the yeast strain containing the empty vector grow at the same rate in glucose, which represses ArfGAP1 expression.
4. The pellet was suspended in 1-mL sterile water and the A 600 was measured. […]
9. Stacks of five plates were shaken on a vortexer at low speed (e.g., setting 4 of a Genie 2 Vortex mixer) for 90 s to resuspend the yeast cells, and the A 600 was measured using a 96-well plate reader. […]

T1 sequence (Q8N6T3 whole entry): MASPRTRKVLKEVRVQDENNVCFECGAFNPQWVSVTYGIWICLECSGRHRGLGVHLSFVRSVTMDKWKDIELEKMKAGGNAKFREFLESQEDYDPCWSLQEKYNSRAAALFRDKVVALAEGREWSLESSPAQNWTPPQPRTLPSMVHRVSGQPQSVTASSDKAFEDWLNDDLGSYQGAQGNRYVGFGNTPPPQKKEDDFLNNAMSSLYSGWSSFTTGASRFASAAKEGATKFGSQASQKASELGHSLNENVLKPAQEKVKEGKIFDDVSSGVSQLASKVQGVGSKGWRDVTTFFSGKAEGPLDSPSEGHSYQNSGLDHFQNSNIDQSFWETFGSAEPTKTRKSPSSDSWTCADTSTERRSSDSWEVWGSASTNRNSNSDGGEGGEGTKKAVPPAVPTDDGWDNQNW

| SMILES | growth of yeast ArfGAP1 gcs1 knockout strains |
| --- | --- |
| O=[N+]([O-])c1ccc(N2CCN(Cc3cccs3)CC2)cc1 [compound 5261344] | dose-dependent growth |
| CC(=O)c1ccc(N2CCN(CC3=CC[C@H]4C[C@@H]3C4(C)C)CC2)cc1 [compound 5429814] | dose-dependent growth |
| C/C=C(\C)CN1CCN(c2ccc(C(C)=O)cc2)CC1 [compound 5431942] | dose-dependent growth |
